# Source: US10710978B2, “STK4 inhibitors for treatment of hematologic malignancies” (Dana-Farber Cancer Institute, Inc., priority 2015, dated 2020)
# Where two headings read alike, the source gives them in different places.
# Assays:
# Experiment in all cases: KiNativ assay
# Assay type in all cases: binding
# IKKb = IKKb (Homo sapiens (Human), UniProt O14920); settings: H929 live cell
# Procedure: (§1) Biochemical IC50s of the compounds of the present disclosure against various kinases were measured in a KiNativ assay. Compounds were screened in duplicate at 10 μM in H929 live cell. IC50 was measured via Mass spectroscopy (MS).
# TLK2 = TLK2 (Homo sapiens (Human), UniProt Q86UE8); settings: H929 live cell
# Procedure: as §1
# ULK1 = ULK1 (Homo sapiens (Human), UniProt O75385); settings: H929 live cell
# Procedure: as §1
# PIK3CG = PIK3CG (Homo sapiens (Human), UniProt P48736); settings: H929 live cell
# Procedure: as §1
# MAP3K2 = MAP3K2 (Homo sapiens (Human), UniProt Q9Y2U5); settings: H929 live cell
# Procedure: as §1
# PIP5K3 = PIP5K3 (Homo sapiens (Human), UniProt Q9Y2I7); settings: H929 live cell
# Procedure: as §1
# MPSK1 = MPSK1 (Homo sapiens (Human), UniProt O75716); settings: H929 live cell
# Procedure: as §1
# p38a = p38a (Homo sapiens (Human), UniProt Q16539); settings: H929 live cell, read-out: % inhibition (range)
# Summary of the method: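 Live H929 cells, compound 10 μM, duplicate; KiNativ probe profiling; IC50 by MS.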
# LYN = LYN (Homo sapiens (Human), UniProt P07948); settings: H929 live cell
# Procedure: as §1
# RSKL1 = RSKL1 (Homo sapiens (Human), UniProt Q96S38); settings: H929 live cell
# Procedure: as §1
# Wnk1, Wnk2, Wnk3 = settings: H929 live cell
# Procedure: as §1
# CDC2 = CDC2 (Homo sapiens (Human), UniProt P06493); settings: H929 live cell
# Procedure: as §1
# FRAP = FRAP (Homo sapiens (Human), UniProt P42345); settings: H929 live cell
# Procedure: as §1
# MAP2K4 = MAP2K4 (Homo sapiens (Human), UniProt P45985); settings: H929 live cell
# Procedure: as §1
# IKKe, TBK1 = settings: H929 live cell
# Procedure: as §1
# EphB2 = EphB2 (Homo sapiens (Human), UniProt P29323); settings: H929 live cell
# Procedure: as §1
# MAPKAPK2, MAPKAPK3 = settings: H929 live cell
# Procedure: as §1
# AurA = AurA (Homo sapiens (Human), UniProt O14965); settings: H929 live cell
# Procedure: as §1
# JNK1, JNK2, JNK3 = settings: H929 live cell
# Procedure: as §1
# ABL, ARG = settings: H929 live cell
# Procedure: as §1
# KSR1, KSR2 = settings: H929 live cell
# Procedure: as §1
# Erk1 = Erk1 (Homo sapiens (Human), UniProt P27361); settings: H929 live cell
# Procedure: as §1
# MAP2K1 = MAP2K1 (Homo sapiens (Human), UniProt Q02750); settings: H929 live cell
# Procedure: as §1
# TAO2 = TAO2 (Homo sapiens (Human), UniProt Q9UL54); settings: H929 live cell
# Procedure: as §1
# CHK1 = CHK1 (Homo sapiens (Human), UniProt O14757); settings: H929 live cell
# Procedure: as §1
# BARK1 = BARK1 (Homo sapiens (Human), UniProt P25098); settings: H929 live cell
# Procedure: as §1
# GCK = GCK (Homo sapiens (Human), UniProt Q12851); settings: H929 live cell
# Procedure: as §1
# NEK8 = NEK8 (Homo sapiens (Human), UniProt Q86SG6); settings: H929 live cell
# Procedure: as §1
# SRPK2 = SRPK2 (Homo sapiens (Human), UniProt P78362); settings: H929 live cell
# Procedure: as §1
# TYK2 domain2 = TYK2 domain2 (Homo sapiens (Human), UniProt P29597); settings: H929 live cell
# Procedure: as §1
# NEK6, NEK7 = settings: H929 live cell
# Procedure: as §1
# CaMK1d = CaMK1d (Homo sapiens (Human), UniProt Q8IU85); settings: H929 live cell
# Procedure: as §1
# TAO1, TAO3 = settings: H929 live cell
# Procedure: as §1
# PRP4 = PRP4 (Homo sapiens (Human), UniProt Q13523); settings: H929 live cell
# Procedure: as §1
# Chain of AurA (O14965 whole entry): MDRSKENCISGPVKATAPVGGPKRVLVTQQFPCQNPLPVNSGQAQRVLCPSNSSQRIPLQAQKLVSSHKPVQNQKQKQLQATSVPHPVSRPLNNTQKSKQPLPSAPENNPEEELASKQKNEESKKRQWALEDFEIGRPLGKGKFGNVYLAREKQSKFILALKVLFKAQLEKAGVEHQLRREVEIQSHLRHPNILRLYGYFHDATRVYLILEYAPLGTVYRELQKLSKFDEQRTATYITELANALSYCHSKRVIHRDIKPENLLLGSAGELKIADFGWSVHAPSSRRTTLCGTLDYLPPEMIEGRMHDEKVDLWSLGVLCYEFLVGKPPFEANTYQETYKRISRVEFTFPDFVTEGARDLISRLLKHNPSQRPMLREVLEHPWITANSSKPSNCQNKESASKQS
# Chain of Erk1 (P27361 whole entry): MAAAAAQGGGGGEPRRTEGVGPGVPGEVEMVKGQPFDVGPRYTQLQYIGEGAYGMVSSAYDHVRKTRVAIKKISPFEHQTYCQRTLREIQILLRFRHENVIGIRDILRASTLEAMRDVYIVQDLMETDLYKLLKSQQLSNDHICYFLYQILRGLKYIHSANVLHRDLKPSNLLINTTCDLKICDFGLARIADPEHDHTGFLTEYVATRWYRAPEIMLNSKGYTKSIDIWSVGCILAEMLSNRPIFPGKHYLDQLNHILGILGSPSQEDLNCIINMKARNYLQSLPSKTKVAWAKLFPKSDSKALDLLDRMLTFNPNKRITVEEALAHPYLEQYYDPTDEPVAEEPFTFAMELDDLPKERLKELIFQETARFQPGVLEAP
# Chain of RSKL1 (Q96S38 whole entry): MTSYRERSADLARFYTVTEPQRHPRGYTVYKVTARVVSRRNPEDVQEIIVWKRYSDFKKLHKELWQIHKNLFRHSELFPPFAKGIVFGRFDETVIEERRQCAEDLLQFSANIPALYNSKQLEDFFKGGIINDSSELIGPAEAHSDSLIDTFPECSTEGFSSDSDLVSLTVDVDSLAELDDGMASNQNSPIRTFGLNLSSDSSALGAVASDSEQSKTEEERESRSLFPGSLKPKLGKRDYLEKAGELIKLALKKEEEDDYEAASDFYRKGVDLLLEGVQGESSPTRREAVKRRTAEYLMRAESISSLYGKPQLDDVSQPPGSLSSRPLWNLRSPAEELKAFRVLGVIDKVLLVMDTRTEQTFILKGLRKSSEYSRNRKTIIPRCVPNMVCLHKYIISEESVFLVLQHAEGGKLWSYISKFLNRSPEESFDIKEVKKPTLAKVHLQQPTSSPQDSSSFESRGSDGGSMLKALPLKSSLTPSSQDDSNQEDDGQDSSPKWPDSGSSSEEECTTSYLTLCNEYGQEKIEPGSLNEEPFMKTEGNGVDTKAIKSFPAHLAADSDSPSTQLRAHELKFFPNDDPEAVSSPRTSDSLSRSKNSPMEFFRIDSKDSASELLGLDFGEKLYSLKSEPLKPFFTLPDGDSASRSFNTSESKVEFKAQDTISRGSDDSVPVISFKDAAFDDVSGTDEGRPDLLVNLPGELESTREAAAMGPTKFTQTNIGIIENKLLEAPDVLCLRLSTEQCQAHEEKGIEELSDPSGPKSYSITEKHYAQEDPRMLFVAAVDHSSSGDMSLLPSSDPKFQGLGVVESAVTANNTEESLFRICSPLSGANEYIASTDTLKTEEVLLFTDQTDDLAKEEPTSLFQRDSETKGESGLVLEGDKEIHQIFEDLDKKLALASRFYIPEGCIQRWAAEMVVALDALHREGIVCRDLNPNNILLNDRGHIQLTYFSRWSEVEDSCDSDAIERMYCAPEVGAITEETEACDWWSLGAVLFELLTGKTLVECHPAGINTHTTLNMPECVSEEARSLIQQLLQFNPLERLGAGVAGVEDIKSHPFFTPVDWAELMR
# Chain of CaMK1d (Q8IU85 whole entry): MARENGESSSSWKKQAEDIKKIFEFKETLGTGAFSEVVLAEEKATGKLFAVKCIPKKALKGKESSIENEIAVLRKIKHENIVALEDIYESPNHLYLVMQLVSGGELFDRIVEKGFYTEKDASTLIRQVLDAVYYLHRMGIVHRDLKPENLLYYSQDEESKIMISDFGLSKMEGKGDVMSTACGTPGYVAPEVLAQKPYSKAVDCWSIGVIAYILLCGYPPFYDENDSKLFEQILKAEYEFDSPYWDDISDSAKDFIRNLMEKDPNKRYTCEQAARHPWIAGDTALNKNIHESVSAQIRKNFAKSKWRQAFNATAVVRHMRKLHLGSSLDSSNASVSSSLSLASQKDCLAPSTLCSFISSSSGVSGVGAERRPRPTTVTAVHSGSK
# Chain of TYK2 domain2 (P29597 whole entry, the tested form may be a part): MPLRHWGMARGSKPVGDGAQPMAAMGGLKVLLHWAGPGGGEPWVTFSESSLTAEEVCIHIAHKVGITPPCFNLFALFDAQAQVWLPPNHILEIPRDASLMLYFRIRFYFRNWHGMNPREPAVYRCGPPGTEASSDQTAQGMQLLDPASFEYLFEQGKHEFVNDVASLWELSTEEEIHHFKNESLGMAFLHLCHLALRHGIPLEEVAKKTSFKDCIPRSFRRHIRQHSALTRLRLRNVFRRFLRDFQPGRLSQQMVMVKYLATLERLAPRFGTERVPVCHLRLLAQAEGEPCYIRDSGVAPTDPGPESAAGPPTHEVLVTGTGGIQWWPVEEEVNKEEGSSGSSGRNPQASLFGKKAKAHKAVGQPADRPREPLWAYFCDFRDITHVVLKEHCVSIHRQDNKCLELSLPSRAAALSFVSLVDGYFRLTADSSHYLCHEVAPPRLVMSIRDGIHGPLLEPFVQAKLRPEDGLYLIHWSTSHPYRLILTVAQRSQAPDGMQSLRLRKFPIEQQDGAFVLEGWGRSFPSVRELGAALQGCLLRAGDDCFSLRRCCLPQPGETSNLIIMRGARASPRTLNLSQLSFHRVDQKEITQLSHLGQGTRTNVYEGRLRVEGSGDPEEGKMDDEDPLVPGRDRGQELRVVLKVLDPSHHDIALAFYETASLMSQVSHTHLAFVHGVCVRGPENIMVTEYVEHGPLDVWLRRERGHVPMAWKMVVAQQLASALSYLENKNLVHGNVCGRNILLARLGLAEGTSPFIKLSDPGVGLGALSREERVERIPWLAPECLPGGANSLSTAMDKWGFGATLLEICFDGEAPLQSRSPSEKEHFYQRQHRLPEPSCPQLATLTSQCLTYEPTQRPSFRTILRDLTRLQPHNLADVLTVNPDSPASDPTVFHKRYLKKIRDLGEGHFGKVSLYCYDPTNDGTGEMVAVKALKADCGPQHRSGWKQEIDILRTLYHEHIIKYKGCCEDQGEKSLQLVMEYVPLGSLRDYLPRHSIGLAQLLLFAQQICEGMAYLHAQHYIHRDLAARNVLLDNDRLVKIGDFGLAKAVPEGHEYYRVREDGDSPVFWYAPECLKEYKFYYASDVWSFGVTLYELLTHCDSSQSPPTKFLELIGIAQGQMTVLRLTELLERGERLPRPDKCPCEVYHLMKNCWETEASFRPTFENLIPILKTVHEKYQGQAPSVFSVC
# Chain of ULK1 (O75385 whole entry): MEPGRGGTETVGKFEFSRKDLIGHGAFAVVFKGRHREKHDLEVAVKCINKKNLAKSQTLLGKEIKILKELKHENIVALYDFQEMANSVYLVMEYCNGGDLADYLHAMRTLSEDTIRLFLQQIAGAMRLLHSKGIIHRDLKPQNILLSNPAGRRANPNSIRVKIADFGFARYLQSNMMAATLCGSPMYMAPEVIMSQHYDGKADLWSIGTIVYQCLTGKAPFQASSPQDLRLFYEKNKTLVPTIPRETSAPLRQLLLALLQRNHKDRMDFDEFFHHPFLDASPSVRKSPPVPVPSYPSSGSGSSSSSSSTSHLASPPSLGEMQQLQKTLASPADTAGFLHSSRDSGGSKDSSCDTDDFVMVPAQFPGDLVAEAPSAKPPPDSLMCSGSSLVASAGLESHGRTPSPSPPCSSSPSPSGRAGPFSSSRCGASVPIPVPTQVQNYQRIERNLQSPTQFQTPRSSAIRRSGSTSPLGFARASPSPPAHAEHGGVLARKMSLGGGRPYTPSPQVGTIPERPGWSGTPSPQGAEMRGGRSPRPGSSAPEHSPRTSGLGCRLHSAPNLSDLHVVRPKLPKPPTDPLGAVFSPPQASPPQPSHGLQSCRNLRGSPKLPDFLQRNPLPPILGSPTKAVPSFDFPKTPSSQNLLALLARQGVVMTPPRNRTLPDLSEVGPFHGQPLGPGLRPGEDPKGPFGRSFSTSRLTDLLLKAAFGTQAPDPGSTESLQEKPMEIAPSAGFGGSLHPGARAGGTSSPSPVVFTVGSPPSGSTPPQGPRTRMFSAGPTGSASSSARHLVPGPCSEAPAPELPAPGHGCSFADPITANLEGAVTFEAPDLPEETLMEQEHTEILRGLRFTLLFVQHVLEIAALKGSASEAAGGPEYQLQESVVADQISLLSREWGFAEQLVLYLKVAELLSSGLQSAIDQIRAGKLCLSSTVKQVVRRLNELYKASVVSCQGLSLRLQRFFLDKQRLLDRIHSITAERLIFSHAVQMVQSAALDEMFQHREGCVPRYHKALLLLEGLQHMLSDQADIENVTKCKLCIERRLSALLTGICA
# Chain of MAP2K1 (Q02750 whole entry): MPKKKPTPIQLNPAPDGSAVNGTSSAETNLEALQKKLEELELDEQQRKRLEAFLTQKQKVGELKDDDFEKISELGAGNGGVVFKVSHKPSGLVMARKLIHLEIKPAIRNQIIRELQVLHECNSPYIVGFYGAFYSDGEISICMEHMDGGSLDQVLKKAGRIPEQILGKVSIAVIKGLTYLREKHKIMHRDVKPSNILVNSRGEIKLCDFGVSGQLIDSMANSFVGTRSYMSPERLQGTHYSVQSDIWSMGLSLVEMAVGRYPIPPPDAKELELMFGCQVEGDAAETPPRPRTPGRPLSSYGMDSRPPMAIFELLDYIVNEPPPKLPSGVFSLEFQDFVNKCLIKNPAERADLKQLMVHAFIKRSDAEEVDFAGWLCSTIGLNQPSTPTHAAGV
compound,measurement,setting,value
"Nc1ncc(-c2cccc3ncsc23)cc1-c1ccc2c(c1)CCNC2=O [Compound I-13, 6-(2-amino-5-(benzo[d]thiazol-7-yl)pyridin-3-yl)-3,4-dihydroisoquinolin-1(2H)-one]",inhibition at 10 µM,IKKb; read-out: % inhibition (range),0%
same,inhibition at 10 µM,IKKb; read-out: inhibition (10 μM),-3.3%
same,inhibition at 10 µM,TLK2; read-out: % inhibition (range),0%
same,inhibition at 10 µM,TLK2; read-out: inhibition (10 μM),12.6%
same,inhibition at 10 µM,ULK1; read-out: % inhibition (range),0%
same,inhibition at 10 µM,ULK1; read-out: inhibition (10 μM),-23.4%
same,inhibition at 10 µM,PIK3CG; read-out: % inhibition (range),0%
same,inhibition at 10 µM,PIK3CG; read-out: inhibition (10 μM),12.4%
same,inhibition at 10 µM,MAP3K2; read-out: % inhibition (range),0%
same,inhibition at 10 µM,MAP3K2; read-out: inhibition (10 μM),-23.5%
same,inhibition at 10 µM,PIP5K3; read-out: % inhibition (range),> 90%
same,inhibition at 10 µM,PIP5K3; read-out: inhibition (10 μM),92.5%
same,inhibition at 10 µM,MPSK1; read-out: % inhibition (range),0%
same,inhibition at 10 µM,MPSK1; read-out: inhibition (10 μM),-28.8%
same,inhibition at 10 µM,p38a,0%
same,inhibition at 10 µM,LYN; read-out: % inhibition (range),0%
same,inhibition at 10 µM,LYN; read-out: inhibition (10 μM),-41.4%
same,inhibition at 10 µM,RSKL1; read-out: % inhibition (range),0%
same,inhibition at 10 µM,RSKL1; read-out: inhibition (10 μM),1.6%
same,% inhibition (range),"Wnk1, Wnk2, Wnk3; 10 μM",0.0%
same,inhibition (10 μM),"Wnk1, Wnk2, Wnk3",−69.3%
same,inhibition at 10 µM,CDC2; read-out: % inhibition (range),0%
same,inhibition at 10 µM,CDC2; read-out: inhibition (10 μM),-15%
same,inhibition at 10 µM,FRAP; read-out: % inhibition (range),0%
same,inhibition at 10 µM,FRAP; read-out: inhibition (10 μM),32.5%
same,inhibition at 10 µM,MAP2K4; read-out: % inhibition (range),35 to 50%
same,inhibition at 10 µM,MAP2K4; read-out: inhibition (10 μM),48.2%
same,% inhibition (range),"IKKe, TBK1; 10 μM",0.0%
same,inhibition (10 μM),"IKKe, TBK1",−9.9%
same,inhibition at 10 µM,EphB2; read-out: % inhibition (range),0%
same,inhibition at 10 µM,EphB2; read-out: inhibition (10 μM),22.1%
same,% inhibition (range),"MAPKAPK2, MAPKAPK3; 10 μM",0.0%
same,inhibition (10 μM),"MAPKAPK2, MAPKAPK3",2.5%
same,inhibition (10 μM),AurA,14.7%
same,inhibition at 10 µM,AurA; read-out: % inhibition (range),0%
same,inhibition at 10 µM,AurA; read-out: inhibition (10 μM),17.4%
same,% inhibition (range),"JNK1, JNK2, JNK3; 10 μM",0.0%
same,inhibition (10 μM),"JNK1, JNK2, JNK3",6.0%
same,% inhibition (range),"ABL, ARG; 10 μM",50-75%
same,inhibition (10 μM),"ABL, ARG",53.5%
same,% inhibition (range),"KSR1, KSR2; 10 μM",0.0%
same,inhibition (10 μM),"KSR1, KSR2",−6.2%
same,inhibition at 10 µM,Erk1; read-out: % inhibition (range),75 to 90%
same,inhibition at 10 µM,Erk1; read-out: inhibition (10 μM),75%
same,inhibition at 10 µM,MAP2K1; read-out: % inhibition (range),0%
same,inhibition at 10 µM,MAP2K1; read-out: inhibition (10 μM),-27.4%
same,inhibition at 10 µM,TAO2; read-out: % inhibition (range),0%
same,inhibition at 10 µM,TAO2; read-out: inhibition (10 μM),-19.7%
same,inhibition at 10 µM,CHK1; read-out: % inhibition (range),0%
same,inhibition at 10 µM,CHK1; read-out: inhibition (10 μM),-8.9%
same,inhibition at 10 µM,BARK1; read-out: % inhibition (range),0%
same,inhibition at 10 µM,BARK1; read-out: inhibition (10 μM),21.8%
same,inhibition at 10 µM,GCK; read-out: % inhibition (range),75 to 90%
same,inhibition at 10 µM,GCK; read-out: inhibition (10 μM),77.3%
same,inhibition at 10 µM,NEK8; read-out: % inhibition (range),0%
same,inhibition at 10 µM,NEK8; read-out: inhibition (10 μM),10.6%
same,inhibition at 10 µM,SRPK2; read-out: % inhibition (range),0%
same,inhibition at 10 µM,SRPK2; read-out: inhibition (10 μM),-14%
same,inhibition at 10 µM,TYK2 domain2; read-out: % inhibition (range),0%
same,inhibition at 10 µM,TYK2 domain2; read-out: inhibition (10 μM),0.6%
same,% inhibition (range),"NEK6, NEK7; 10 μM",0.0%
same,inhibition (10 μM),"NEK6, NEK7",−20.1%
same,inhibition at 10 µM,CaMK1d; read-out: % inhibition (range),0%
same,inhibition at 10 µM,CaMK1d; read-out: inhibition (10 μM),16.2%
same,% inhibition (range),"TAO1, TAO3; 10 μM",0.0%
same,inhibition (10 μM),"TAO1, TAO3",10.3%
same,inhibition at 10 µM,PRP4; read-out: % inhibition (range),50 to 75%
same,inhibition at 10 µM,PRP4; read-out: inhibition (10 μM),73.4%
